Assay results as given in patent publication US10168342B2, “Lipid probes and uses thereof” (THE SCRIPPS RESEARCH INSTITUTE, priority 2015, dated 2019).
Like-named read-outs stand apart in the source and are kept apart here.

Columns and labels:
[1] = biological target: T1, AEA-DA lipid probe targets in Neuro2a cells (Mus musculus, UniProt Q3TZX3)
T1 sequence (Q3TZX3 1-320): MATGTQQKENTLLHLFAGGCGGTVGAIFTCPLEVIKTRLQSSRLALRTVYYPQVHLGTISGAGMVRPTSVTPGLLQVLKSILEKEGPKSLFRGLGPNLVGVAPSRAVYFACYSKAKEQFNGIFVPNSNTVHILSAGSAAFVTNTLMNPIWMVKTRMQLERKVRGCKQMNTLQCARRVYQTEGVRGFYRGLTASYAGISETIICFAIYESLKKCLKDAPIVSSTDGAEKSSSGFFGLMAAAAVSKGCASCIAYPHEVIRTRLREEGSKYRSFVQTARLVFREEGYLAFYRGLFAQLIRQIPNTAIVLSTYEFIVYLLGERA

[2] = biological target: T2, AEA-DA lipid probe targets in Neuro2a cells (Mus musculus, UniProt Q9ES97)
T2 sequence (Q9ES97 1-964): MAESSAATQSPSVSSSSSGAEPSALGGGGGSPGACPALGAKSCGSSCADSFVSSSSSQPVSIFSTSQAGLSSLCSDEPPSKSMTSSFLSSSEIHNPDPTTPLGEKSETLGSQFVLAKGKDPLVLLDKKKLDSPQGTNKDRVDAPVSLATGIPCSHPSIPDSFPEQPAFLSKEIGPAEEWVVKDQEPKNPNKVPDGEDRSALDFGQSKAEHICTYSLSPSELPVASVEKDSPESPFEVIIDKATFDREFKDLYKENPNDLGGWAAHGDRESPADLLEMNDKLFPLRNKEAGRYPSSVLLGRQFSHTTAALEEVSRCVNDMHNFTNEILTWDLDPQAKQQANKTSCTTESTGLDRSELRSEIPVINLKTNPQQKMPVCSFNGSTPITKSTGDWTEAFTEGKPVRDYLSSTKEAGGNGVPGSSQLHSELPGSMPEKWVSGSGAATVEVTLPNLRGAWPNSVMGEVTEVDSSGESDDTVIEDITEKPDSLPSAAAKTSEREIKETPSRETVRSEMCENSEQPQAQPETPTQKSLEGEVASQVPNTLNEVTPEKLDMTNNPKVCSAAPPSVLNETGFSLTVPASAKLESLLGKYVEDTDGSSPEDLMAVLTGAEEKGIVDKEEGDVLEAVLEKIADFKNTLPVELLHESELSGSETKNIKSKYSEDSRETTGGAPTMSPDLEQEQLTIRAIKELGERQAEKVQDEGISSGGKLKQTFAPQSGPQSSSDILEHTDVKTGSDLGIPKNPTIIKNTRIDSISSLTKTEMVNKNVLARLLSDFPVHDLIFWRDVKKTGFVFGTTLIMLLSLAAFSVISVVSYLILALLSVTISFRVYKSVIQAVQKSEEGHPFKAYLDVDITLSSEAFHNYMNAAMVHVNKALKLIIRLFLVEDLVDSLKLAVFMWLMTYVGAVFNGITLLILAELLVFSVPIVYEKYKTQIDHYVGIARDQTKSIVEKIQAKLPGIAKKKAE

[3] = biological target: T3, AEA-DA lipid probe targets in Neuro2a cells (Mus musculus, UniProt Q925I1)
T3 sequence (Q925I1 1-591): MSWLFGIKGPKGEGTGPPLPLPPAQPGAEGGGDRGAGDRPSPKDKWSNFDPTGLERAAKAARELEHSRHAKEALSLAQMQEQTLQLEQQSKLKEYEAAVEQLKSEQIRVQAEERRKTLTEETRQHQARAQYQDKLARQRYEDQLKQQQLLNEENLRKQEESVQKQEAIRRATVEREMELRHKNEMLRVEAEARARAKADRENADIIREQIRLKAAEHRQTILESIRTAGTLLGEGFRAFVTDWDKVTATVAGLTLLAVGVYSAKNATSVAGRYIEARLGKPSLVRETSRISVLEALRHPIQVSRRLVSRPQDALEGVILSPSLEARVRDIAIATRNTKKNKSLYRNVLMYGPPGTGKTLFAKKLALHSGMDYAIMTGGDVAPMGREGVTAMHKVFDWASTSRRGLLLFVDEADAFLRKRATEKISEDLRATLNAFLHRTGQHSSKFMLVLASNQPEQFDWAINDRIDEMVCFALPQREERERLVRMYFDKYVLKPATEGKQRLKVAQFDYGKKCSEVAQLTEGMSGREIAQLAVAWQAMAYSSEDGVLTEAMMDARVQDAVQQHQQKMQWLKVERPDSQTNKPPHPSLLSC

[4] = biological target: AEA-DA lipid probe targets in Neuro2a cells (Mus musculus, UniProt P47867)
[5] = test system: AEA-DA lipid probe targets in Neuro2a cells; details: for SILAC ratio, GM20425 (E9Q035): AEA-DA probe
[6] = biological target: T4, AEA-DA lipid probe targets in Neuro2a cells (Mus musculus, UniProt Q5U680)
T4 sequence (Q5U680 1-274): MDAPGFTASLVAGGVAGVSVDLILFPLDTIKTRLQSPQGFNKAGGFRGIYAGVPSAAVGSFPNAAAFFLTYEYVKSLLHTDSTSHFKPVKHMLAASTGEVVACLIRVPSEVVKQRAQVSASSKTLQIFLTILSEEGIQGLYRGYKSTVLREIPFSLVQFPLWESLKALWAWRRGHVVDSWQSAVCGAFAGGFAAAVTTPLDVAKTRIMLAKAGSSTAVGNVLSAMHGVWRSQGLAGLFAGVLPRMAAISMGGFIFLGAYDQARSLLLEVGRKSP

[7] = Neuro2a cells, competitor 25 μM
[8] = competitor 25 μM, first Tmpo line (r51)
[9] = competitor 25 μM, second Tmpo line (r55)

AEA-DA lipid probe targets in Neuro2a cells (Mus musculus, UniProt P47867), sequence (P47867 23-471): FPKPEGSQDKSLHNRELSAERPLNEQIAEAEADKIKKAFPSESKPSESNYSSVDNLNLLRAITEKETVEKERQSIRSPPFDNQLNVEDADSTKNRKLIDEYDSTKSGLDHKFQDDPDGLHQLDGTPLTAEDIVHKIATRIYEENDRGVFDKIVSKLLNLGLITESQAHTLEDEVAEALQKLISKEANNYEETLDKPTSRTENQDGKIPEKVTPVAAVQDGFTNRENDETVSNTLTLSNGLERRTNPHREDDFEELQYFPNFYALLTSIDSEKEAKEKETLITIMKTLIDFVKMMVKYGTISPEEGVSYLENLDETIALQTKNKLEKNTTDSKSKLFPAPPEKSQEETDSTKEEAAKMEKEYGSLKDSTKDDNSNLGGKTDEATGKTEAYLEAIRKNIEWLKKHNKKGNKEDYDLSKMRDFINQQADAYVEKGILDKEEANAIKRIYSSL

CCCCC/C=C\C/C=C\C/C=C\C/C=C\CCCC(=O)NCCO [AEA, anandamide, reference compound]
SILAC ratio Slc25a33 ([1]; competitor 200 μM): 1.3 | SILAC ratio, Rtn3 ([2]; competitor 200 μM): 2.7 | SILAC ratio Atad3 ([3]; competitor 200 μM): 1.5 | SILAC ratio, Scg3 ([4]; competitor 200 μM): 1.2 | competition of AEA-DA labeling by lipid competitor ([5]; Neuro2a cells, 200 μM): competed with several targets | SILAC ratio, GM20425 (E9Q035) ([5]; Neuro2a cells, competitor 200 μM): 2.3 | SILAC ratio Akr1c12 ([5]; competitor 200 μM): 1.8 | SILAC ratio Uncharacterized ([5]; competitor 200 μM): 1.7 | SILAC ratio, Akr1b10 ([5]; competitor 200 μM): 4.5 | SILAC ratio, Gm20425 ([5]; competitor 200 μM): 2.3 | SILAC ratio, Gm20671 ([5]; competitor 200 μM): 1.8 | SILAC ratio, Tmpo ([5]; competitor 200 μM, first Tmpo line (r51)): 2.0 | SILAC ratio, Tmpo ([5]; competitor 200 μM, second Tmpo line (r55)): 1.9 | SILAC ratio, Slc25a26 ([6]; competitor 200 μM): 1.0

C=CCN(C)CCCCCCOc1ccc(C(=O)c2ccc(Br)cc2)c(F)c1 [Ro 48-8071, reference compound]
SILAC ratio Slc25a33 ([1]; competitor 25 μM): 1.0 | SILAC ratio, Rtn3 ([2]; competitor 25 μM): 1.2 | SILAC ratio Atad3 ([3]; competitor 25 μM): 1.0 | SILAC ratio, Scg3 ([4]; competitor 25 μM): 0.9 | SILAC ratio, GM20425 (E9Q035) [5, 7]: 1.2 | SILAC ratio Akr1c12 ([5]; competitor 25 μM): 0.9 | SILAC ratio H2-K1 ([5]; competitor 25 μM): 0.9 | SILAC ratio Nup205 ([5]; competitor 25 μM): 0.9 | SILAC ratio Uncharacterized ([5]; competitor 25 μM): 1.0 | SILAC ratio, Gm20425 ([5]; competitor 25 μM): 1.2 | SILAC ratio, Gm20671 ([5]; competitor 25 μM): 1.3 | SILAC ratio, Tmpo [5, 8]: 1.2 | SILAC ratio, Tmpo [5, 9]: 1.2 | SILAC ratio, Slc25a26 ([6]; competitor 25 μM): 0.7

CN1CCN(C(=O)c2c(-c3ccccc3)c3cc([N+](=O)[O-])ccc3n2C)CC1 [KML110, (1-Methyl-5-nitro-3-phenyl-1H-indol-2-yl)(4-methylpiperazin-1-yl)methanone]
SILAC ratio Slc25a33 ([1]; competitor 25 μM): 1.4 | SILAC ratio, Rtn3 ([2]; competitor 25 μM): 1.3 | SILAC ratio Atad3 ([3]; competitor 25 μM): 1.2 | SILAC ratio, Scg3 ([4]; competitor 25 μM): 1.0 | SILAC ratio Akr1c12 ([5]; competitor 25 μM): 1.2 | SILAC ratio H2-K1 ([5]; competitor 25 μM): 1.6 | SILAC ratio Nup205 ([5]; competitor 25 μM): 1.2 | SILAC ratio Uncharacterized ([5]; competitor 25 μM): 1.1 | SILAC ratio, Gm20425 ([5]; competitor 25 μM): 1.5 | SILAC ratio, Gm20671 ([5]; competitor 25 μM): 1.4 | SILAC ratio, Tmpo [5, 8]: 1.5 | SILAC ratio, Tmpo [5, 9]: 1.5 | SILAC ratio, Slc25a26 ([6]; competitor 25 μM): 0.7

O=C(/C=C/c1cccnc1)NCCCCC1CCN(C(=O)c2ccccc2)CC1 [FK-866, reference compound]
SILAC ratio Slc25a33 ([1]; competitor 25 μM): 1.2 | SILAC ratio, Rtn3 ([2]; competitor 25 μM): 1.1 | SILAC ratio Atad3 ([3]; competitor 25 μM): 1.2 | SILAC ratio, Scg3 ([4]; competitor 25 μM): 1.0 | competition of probe labeling of NAMPT and ABCB1B ([5]; Neuro2a cells, AEA-DA 5 μM, drug 25 μM): competed probe-labeling | SILAC ratio, GM20425 (E9Q035) [5, 7]: 1.2 | SILAC ratio Akr1c12 ([5]; competitor 25 μM): 1.3 | SILAC ratio H2-K1 ([5]; competitor 25 μM): 1.0 | SILAC ratio Nup205 ([5]; competitor 25 μM): 0.9 | SILAC ratio Uncharacterized ([5]; competitor 25 μM): 1.3 | SILAC ratio, Gm20425 ([5]; competitor 25 μM): 1.2 | SILAC ratio, Tmpo [5, 8]: 1.0 | SILAC ratio, Tmpo [5, 9]: 1.1 | SILAC ratio, Slc25a26 ([6]; competitor 25 μM): 0.8

CN1CCN(C(=O)c2[nH]c3ccc([N+](=O)[O-])cc3c2-c2ccccc2)CC1 [MJN228, (4-Methylpiperazin-1-yl)(5-nitro-3-phenyl-1H-indol-2-yl)methanone]
SILAC ratio Slc25a33 ([1]; competitor 10 μM): 1.2 | SILAC ratio Slc25a33 ([1]; competitor 25 μM): 1.2 | SILAC ratio Slc25a33 ([1]; competitor 50 μM): 0.9 | SILAC ratio Slc25a33 ([1]; competitor 100 μM): 0.6 | SILAC ratio, Rtn3 ([2]; competitor 10 μM): 1.2 | SILAC ratio, Rtn3 ([2]; competitor 25 μM): 1.4 | SILAC ratio, Rtn3 ([2]; competitor 50 μM): 1.4 | SILAC ratio, Rtn3 ([2]; competitor 100 μM): 1.7 | SILAC ratio Atad3 ([3]; competitor 10 μM): 1.1 | SILAC ratio Atad3 ([3]; competitor 25 μM): 1.4 | SILAC ratio Atad3 ([3]; competitor 50 μM): 1.3 | SILAC ratio Atad3 ([3]; competitor 100 μM): 1.4 | SILAC ratio, Scg3 ([4]; competitor 10 μM): 1.0 | SILAC ratio, Scg3 ([4]; competitor 25 μM): 1.3 | SILAC ratio, Scg3 ([4]; competitor 50 μM): 1.0 | SILAC ratio, Scg3 ([4]; competitor 100 μM): 0.8 | SILAC ratio, GM20425 (E9Q035) [5, 7]: 1.7 | SILAC ratio Nup205 ([5]; competitor 10 μM): 1.0 | SILAC ratio Uncharacterized ([5]; competitor 10 μM): 1.1 | SILAC ratio, Akr1b10 ([5]; competitor 10 μM): 2.1 | SILAC ratio, Gm20425 ([5]; competitor 10 μM): 1.3 | SILAC ratio, Tmpo ([5]; competitor 10 μM, first Tmpo line (r51)): 1.1 | SILAC ratio, Tmpo ([5]; competitor 10 μM, second Tmpo line (r55)): 1.1 | SILAC ratio H2-K1 ([5]; competitor 25 μM): 1.1 | SILAC ratio Nup205 ([5]; competitor 25 μM): 1.2 | SILAC ratio Uncharacterized ([5]; competitor 25 μM): 1.6 | SILAC ratio, Gm20425 ([5]; competitor 25 μM): 1.7 | SILAC ratio, Gm20671 ([5]; competitor 25 μM): 1.4 | SILAC ratio, Tmpo [5, 8]: 1.4 | SILAC ratio, Tmpo [5, 9]: 1.4 | SILAC ratio Nup205 ([5]; competitor 50 μM): 1.1 | SILAC ratio, Akr1b10 ([5]; competitor 50 μM): 2.6 | SILAC ratio, Gm20425 ([5]; competitor 50 μM): 1.7 | SILAC ratio, Tmpo ([5]; competitor 50 μM, first Tmpo line (r51)): 1.4 | SILAC ratio, Tmpo ([5]; competitor 50 μM, second Tmpo line (r55)): 1.3 | SILAC ratio Nup205 ([5]; competitor 100 μM): 1.2 | SILAC ratio Uncharacterized ([5]; competitor 100 μM): 3.0 | SILAC ratio, Akr1b10 ([5]; competitor 100 μM): 3.2 | SILAC ratio, Gm20425 ([5]; competitor 100 μM): 2.9 | SILAC ratio, Tmpo ([5]; competitor 100 μM, first Tmpo line (r51)): 2.1 | SILAC ratio, Tmpo ([5]; competitor 100 μM, second Tmpo line (r55)): 2.0 | SILAC ratio, Slc25a26 ([6]; competitor 10 μM): 0.9 | SILAC ratio, Slc25a26 ([6]; competitor 25 μM): 0.7 | SILAC ratio, Slc25a26 ([6]; competitor 50 μM): 0.3 | SILAC ratio, Slc25a26 ([6]; competitor 100 μM): 0.4
